Among the data in patent US20100267697A1, “ION CHANNEL MODULATORS” (Wyeth, priority 2006, published 2010) are IC50 values, retold here.

In this assay the target is T1, human Cav2.2 (composed of the subunits α1, β3 and α2δ) (Homo sapiens, UniProt Q00975).
T1 construct: expressed in transfected cells
Briefly: FLIPR assay (TSA201 cells stably transfected with human Cav2.2 and human Kir2.3, FLUO-4 Ca2+ signal, KCl depolarization). The assay is classed as cell-based. Particulars: 70 mM KCl depolarization, average value. The method, then: TSA201 cells stably transfected with human Cav2.2 (composed of the subunits α1, β3 and α2δ) and human Kir2.3 to enhance the FLIPR Ca^2+ signal were used. These cells were plated on 384-well collagen-coated plates (BD Bioscience, Franklin Lakes, N.J.) at a density of 2×10^4 cells/well one day prior to the FLIPR assay. […] Culture media is removed and replaced with 25 μl of the FLUO-4 dye solution and incubated for one hour at room temperature. The cell plate is then placed on the FLIPR where the dye is aspirated off and replaced with 25 μl of HBSS (Invitrogen, Carlsbad, Calif.). The HBSS is then aspirated and replaced with […] of compound which is diluted in HBSS with 1% DMSO. Compounds are incubated on the cells for 15 minutes. The cells are then depolarized with 25 μl of 140 mM KCl solution (also containing 2 mM CaCl2 and 10 mM HEPES). The final concentration of KCl on the cells is 70 mM.

T1 sequence (Q00975 whole entry): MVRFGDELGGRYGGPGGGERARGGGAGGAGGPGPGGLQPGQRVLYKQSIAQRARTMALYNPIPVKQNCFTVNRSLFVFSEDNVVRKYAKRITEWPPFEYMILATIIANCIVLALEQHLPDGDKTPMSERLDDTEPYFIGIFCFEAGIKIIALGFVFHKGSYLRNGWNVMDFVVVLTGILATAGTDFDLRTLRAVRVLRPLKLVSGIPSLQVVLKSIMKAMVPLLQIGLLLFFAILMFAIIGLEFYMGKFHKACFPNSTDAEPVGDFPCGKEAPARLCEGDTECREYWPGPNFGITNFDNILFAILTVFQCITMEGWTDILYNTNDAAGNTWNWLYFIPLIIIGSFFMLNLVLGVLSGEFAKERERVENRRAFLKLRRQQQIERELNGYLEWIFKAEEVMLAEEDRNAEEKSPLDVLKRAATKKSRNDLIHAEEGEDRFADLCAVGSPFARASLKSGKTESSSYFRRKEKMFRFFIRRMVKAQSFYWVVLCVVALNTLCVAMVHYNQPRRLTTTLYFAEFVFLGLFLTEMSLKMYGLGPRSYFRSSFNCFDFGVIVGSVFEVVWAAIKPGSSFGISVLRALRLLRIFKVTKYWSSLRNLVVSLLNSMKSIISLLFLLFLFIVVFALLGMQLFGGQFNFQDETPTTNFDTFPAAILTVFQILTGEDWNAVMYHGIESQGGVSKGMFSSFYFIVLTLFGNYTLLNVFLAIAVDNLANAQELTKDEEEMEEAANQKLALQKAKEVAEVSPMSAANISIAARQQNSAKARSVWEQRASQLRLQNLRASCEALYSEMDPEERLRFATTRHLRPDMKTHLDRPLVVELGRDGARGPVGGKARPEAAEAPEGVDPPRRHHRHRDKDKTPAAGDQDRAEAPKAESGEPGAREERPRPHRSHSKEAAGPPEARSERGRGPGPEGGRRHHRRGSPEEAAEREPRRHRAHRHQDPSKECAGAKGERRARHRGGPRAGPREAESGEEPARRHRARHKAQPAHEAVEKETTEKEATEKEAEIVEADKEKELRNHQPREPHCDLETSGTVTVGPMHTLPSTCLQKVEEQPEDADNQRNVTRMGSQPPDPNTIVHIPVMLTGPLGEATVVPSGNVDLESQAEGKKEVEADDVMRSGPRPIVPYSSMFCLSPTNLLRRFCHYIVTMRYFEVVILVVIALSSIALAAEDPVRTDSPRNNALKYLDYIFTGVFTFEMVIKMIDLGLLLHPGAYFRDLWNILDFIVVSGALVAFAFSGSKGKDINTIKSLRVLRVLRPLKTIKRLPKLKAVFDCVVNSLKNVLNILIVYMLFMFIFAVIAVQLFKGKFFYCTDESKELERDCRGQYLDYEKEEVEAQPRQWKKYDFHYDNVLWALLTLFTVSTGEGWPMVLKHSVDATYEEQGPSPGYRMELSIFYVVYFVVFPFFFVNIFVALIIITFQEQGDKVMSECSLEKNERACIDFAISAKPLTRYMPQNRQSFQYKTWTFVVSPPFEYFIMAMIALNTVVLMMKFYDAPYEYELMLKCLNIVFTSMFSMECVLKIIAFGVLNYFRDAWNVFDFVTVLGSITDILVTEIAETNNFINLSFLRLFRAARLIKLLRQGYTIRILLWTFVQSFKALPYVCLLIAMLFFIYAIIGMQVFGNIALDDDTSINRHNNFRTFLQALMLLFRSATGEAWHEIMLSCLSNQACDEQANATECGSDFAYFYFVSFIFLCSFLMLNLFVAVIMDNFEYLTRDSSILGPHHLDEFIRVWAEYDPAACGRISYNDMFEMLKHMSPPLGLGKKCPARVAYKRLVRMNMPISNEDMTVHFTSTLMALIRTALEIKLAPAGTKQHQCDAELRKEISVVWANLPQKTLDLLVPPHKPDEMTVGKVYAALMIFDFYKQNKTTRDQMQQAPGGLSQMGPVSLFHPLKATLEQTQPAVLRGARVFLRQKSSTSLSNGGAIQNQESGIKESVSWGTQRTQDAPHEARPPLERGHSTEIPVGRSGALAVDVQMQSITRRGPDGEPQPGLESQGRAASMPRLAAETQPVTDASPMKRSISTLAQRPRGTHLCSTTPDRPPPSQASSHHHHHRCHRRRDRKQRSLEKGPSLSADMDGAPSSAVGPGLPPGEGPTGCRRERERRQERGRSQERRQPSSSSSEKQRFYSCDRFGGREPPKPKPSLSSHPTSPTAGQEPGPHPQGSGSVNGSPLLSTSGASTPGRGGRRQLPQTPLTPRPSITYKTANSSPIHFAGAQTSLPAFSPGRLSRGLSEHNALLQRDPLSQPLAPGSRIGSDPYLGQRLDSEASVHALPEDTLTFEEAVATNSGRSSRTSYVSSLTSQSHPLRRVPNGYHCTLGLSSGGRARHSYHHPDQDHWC
T1 sequence (P54284 whole entry partner): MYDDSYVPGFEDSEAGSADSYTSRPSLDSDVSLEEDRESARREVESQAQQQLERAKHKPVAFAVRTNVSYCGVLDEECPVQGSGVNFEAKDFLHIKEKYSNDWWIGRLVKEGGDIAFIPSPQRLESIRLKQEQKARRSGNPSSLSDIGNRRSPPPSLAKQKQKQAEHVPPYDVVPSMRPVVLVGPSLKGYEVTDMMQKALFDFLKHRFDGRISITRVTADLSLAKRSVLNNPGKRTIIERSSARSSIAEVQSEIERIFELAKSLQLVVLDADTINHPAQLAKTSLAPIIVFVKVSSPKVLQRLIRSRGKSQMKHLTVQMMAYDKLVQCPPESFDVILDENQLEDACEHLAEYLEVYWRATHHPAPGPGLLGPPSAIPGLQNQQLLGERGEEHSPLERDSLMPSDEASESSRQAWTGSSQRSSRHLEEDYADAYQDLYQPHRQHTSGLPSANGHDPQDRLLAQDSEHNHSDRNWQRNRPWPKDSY
T1 sequence (P54289 25-946 partner limits assumed): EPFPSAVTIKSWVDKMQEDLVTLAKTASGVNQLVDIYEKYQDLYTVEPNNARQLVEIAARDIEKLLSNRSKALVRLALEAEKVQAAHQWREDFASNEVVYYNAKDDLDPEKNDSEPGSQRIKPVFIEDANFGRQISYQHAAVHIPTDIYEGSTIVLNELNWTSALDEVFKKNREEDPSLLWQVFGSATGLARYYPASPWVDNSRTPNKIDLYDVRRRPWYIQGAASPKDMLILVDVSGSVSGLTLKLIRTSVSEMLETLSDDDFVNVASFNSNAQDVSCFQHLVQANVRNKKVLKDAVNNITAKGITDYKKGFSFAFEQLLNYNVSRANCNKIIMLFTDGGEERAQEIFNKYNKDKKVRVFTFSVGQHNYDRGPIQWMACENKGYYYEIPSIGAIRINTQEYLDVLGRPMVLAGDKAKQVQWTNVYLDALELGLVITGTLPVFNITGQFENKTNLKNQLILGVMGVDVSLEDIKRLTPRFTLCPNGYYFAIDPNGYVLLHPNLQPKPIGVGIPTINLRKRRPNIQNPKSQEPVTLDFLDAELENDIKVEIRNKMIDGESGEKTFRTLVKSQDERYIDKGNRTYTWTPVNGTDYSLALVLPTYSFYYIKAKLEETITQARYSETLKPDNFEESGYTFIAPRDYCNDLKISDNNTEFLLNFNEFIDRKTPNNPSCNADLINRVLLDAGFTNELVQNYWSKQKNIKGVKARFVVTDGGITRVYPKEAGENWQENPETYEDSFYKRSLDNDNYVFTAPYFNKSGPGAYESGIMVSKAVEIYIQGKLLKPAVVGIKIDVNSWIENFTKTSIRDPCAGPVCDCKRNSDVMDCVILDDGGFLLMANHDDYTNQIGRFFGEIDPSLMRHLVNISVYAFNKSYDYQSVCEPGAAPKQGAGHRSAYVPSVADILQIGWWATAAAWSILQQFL
T1 sequence (P54289 947-1103 partner limits assumed): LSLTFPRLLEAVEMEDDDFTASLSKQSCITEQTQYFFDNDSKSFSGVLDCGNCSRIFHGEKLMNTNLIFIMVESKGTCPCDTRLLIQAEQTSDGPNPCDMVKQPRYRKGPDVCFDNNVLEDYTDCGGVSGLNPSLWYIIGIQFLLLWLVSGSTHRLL

As to `CC(C)(C)C(=O)N(Cc1csc(N2CCNCC2)n1)c1ccc(F)cc1` [Compound 152, N-(4-fluorophenyl)-2,2-dimethyl-N-[(2-piperazin-1-yl-1,3-thiazol-4-yl)methyl]propanamide], the IC50 worked out at 8.3 µM.
Then `CN(C)CCNc1nc(CN(C(=O)C(C)(C)C)c2ccc(F)cc2)cs1` [Compound 153, N-[(2-{[2-(dimethylamino)ethyl]amino}-1,3-thiazol-4-yl)methyl]-N-(4-fluorophenyl)-2,2-dimethylpropanamide], with 12.9 µM; and `CN(C)CCCNc1nc(CN(C(=O)C(C)(C)C)c2ccc(F)cc2)cs1` [Compound 154], with 9 µM.
`CN(C)CCCCNc1nc(CN(C(=O)C(C)(C)C)c2ccc(F)cc2)cs1` [Compound 155, N-[(2-{[4-(dimethylamino)butyl]amino}-1,3-thiazol-4-yl)methyl]-N-(4-fluorophenyl)-2,2-dimethylpropanamide]: the midpoint of inhibition, the IC50, lay at 8.5 µM.
`CC(C)(C)C(=O)N(Cc1csc(NC2CCCC2)n1)c1ccc(F)cc1` [Compound 156, N-{[2-(cyclopentylamino)-1,3-thiazol-4-yl]methyl}-N-(4-fluorophenyl)-2,2-dimethylpropanamide] registered an IC50 of 3 µM.
`CC(C)(C)C(=O)N(Cc1csc(NC2CCCCC2)n1)c1ccc(F)cc1` [Compound 157, N-{[2-(cyclohexylamino)-1,3-thiazol-4-yl]methyl}-N-(4-fluorophenyl)-2,2-dimethylpropanamide]: 8.8 µM corresponded to half-maximal inhibition (IC50).
On to `CC(C)(C)C(=O)N(Cc1csc(Nc2ccc(F)cc2)n1)c1ccc(F)cc1` [Compound 158, N-(4-fluroophenyl)-N-({2-[(4-fluorophenyl)amino]-1,3-thiazol-4-yl}methyl)-2,2-dimethylpropanamide], for which the concentration for half-maximal inhibition (IC50) is 9.4 µM.
Regarding `CC(C)(C)C(=O)N(Cc1csc(Nc2ccccc2F)n1)c1ccc(F)cc1` [Compound 159, N-(4-fluorophenyl)-N-({2-[(2-fluorophenyl)amino]-1,3-thiazol-4-yl}methyl)-2,2-dimethylpropanamide], the concentration for half-maximal inhibition (IC50) was 10.2 µM.
In turn, `CNc1nc(CN(C(=O)C(C)(C)C)c2ccc(F)cc2)cs1` [Compound 160, N-(4-fluorophenyl)-2,2-dimethyl-N-{[2-(methylamino)-1,3-thiazol-4-yl]methyl}propanamide] displayed an IC50 of 6.1 µM.
For `CC(C)CNc1nc(CN(C(=O)C(C)(C)C)c2ccc(F)cc2)cs1` [Compound 161, N-(4-fluorophenyl)-N-{[2-(isobutylamino)-1,3-thiazol-4-yl]methyl}-2,2-dimethylpropanamide], the IC50 turned out to be 2.7 µM.
In turn, `CC(C)(C)C(=O)N(Cc1csc(N2C[C@@H]3C[C@H]2CN3)n1)c1ccc(F)cc1` [Compound 162, N-({2-[(1S,4S)-2,5-diazabicycl[2.2.1]hept-2-yl]-1,3-thiazol-4-yl}methyl)-N-(4-fluorophenyl)-2,2-dimethylpropanamide] showed an IC50 of 11 µM.
In the case of `CCCNc1nc(CN(C(=O)C(C)(C)C)c2ccc(F)cc2)cs1` [Compound 163, N-(4-fluorophenyl)-2,2-dimethyl-N-{[2-(propylamino)-1,3-thiazol-4-yl]methyl}propanamide] it was 7.7 µM.
In the case of `CN(C)c1nc(CN(C(=O)C(C)(C)C)c2ccc(F)cc2)cs1` [Compound 164, N-{[2-(dimethylamino)-1,3-thiazol-4-yl]methyl}-N-(4-fluorophenyl)-2,2-dimethylpropanamide], half-maximal inhibition (IC50) was put at 4.75 µM.
`CC(C)(C)C(=O)N(Cc1csc(N2CCN(CCc3ccccc3)CC2)n1)c1ccc(F)cc1` [Compound 165, N-(4-fluroophenyl)-2,2-dimethyl-N-({2-[4-(2-phenylethyl)piperazin-1-yl]--1,3-thiazol-4-yl}methyl)propanamide]: inhibition was half-maximal at 3.6 µM (IC50).
Turning to `CN(C)CCCN1CCN(c2nc(CN(C(=O)C(C)(C)C)c3ccc(F)cc3)cs2)CC1` [Compound 166, N-[(2-{4-[3-(dimethylamino)propyl]piperazin-1-yl}-1,3-thiazol-4-yl)methyl]-N-(4-fluorophenyl)-2,2-dimethylpropanamide], the IC50 is 19.8 µM.
Turning to `CC(C)(C)C(=O)N(Cc1csc(N2CCN(C(c3ccccc3)c3ccccc3)CC2)n1)c1ccc(F)cc1` [Compound 167, N-({2-[4-(diphenylmethyl)piperazin-1-yl]-1,3-thiazol-4-yl}methyl)-N-(4-fluroophenyl)-2,2-dimethylpropanamide], the IC50 was found to be 13.3 µM.
On to `CCN(c1nc(CN(C(=O)C(C)(C)C)c2ccccc2)cs1)C1CC1` [Compound 168, N-({2-[cyclopropyl(ethyl)amino]-1,3-thiazol-4-yl}methyl)-2,2-dimethyl-N-phenylpropanamide], for which 5.1 µM corresponded to half-maximal inhibition (IC50).
Molecule `CCN(c1nc(CN(C(=O)C(C)(C)C)c2ccccc2F)cs1)C1CC1` [Compound 169, N-({2-[cyclopropyl(ethyl)amino]-1,3-thiazol-4-yl}methyl)-N-(2-fluorophenyl)-2,2-dimethylpropanamide] yielded an IC50 of 5.7 µM.
`CCN(c1nc(CN(C(=O)C(C)(C)C)c2cccc(F)c2)cs1)C1CC1` [Compound 170, N-({2-[cyclopropyl(ethyl)amino]-1,3-thiazol-4-yl}methyl)-N-(3-fluorophenyl)-2,2-dimethylpropanamide] displayed an IC50 of 3.9 µM.
On to `CCN(c1nc(CN(C(=O)C(C)(C)C)c2ccccc2C)cs1)C1CC1` [Compound 171, N-({2-[cyclopropyl(ethyl)amino]-1,3-thiazol-4-yl}methyl)-2,2-dimethyl-N-(2-methylphenyl)propanamide], for which the IC50 worked out at 6.5 µM.
In turn, `CCN(c1nc(CN(C(=O)C(C)(C)C)c2cccc(C)c2)cs1)C1CC1` [Compound 172, N-({2-[cyclopropyl(ethyl)amino]-1,3-thiazol-4-yl}methyl)-2,2-dimethyl-N-(3-methylphenyl)propanamide] registered an IC50 of 4.3 µM.
Consider `CCN(c1nc(CN(C(=O)C(C)(C)C)c2ccc(C)cc2)cs1)C1CC1` [Compound 173, N-({2-[cyclopropyl(ethyl)amino]-1,3-thiazol-4-yl}methyl)-2,2-dimethyl-N-(4-methylphenyl)propanamide], for which the half-inhibitory concentration (IC50) was determined as 3.8 µM.
In the case of `CCN(c1nc(CN(C(=O)C(C)(C)C)c2ccccc2OC)cs1)C1CC1` [Compound 174, N-({2-[cyclopropyl(ethyl)amino]-1,3-thiazol-4-yl}methyl)-N-(2-methoxyphenyl)-2,2-dimethylpropanamide] it was 3.8 µM.
Consider `CCN(c1nc(CN(C(=O)C(C)(C)C)c2ccc(OC)cc2)cs1)C1CC1` [Compound 175, N-({2-[cyclopropyl(ethyl)amino]-1,3-thiazol-4-yl}methyl)-N-(4-methoxyphenyl)-2,2-dimethylpropanamide], for which the concentration for half-maximal inhibition (IC50) was 3.6 µM.
In the case of `CCN(c1nc(CN(C(=O)C(C)(C)C)c2cccc3c2CCCC3)cs1)C1CC1` [Compound 176, N-({2-[cyclopropyl(ethyl)amino]-1,3-thiazol-4-yl}methyl)-2,2-dimethyl-N-(5,6,7,8-tetrahydronaphthalen-1-yl)propanamide], 7.1 µM corresponded to half-maximal inhibition (IC50).
Take `CC(C)(C)C(=O)N(Cc1csc(N2CCN(Cc3ccccc3)CC2)n1)c1ccc(F)cc1` [Compound 177, N-{[2-(4-benzylpiperazin-1-yl)-1,3-thiazol-4-yl]methyl}-N-(4-fluorophenyl)-2,2-dimethylpropanamide]: the IC50 came to 9.3 µM.
As to `CN(C)CCN1CCN(c2nc(CN(C(=O)C(C)(C)C)c3ccc(F)cc3)cs2)CC1` [Compound 178, N-[(2-{4-[2-(dimethylamino)ethyl]piperazin-1-yl}-1,3-thiazol-4-yl)methyl]-N-(4-fluorophenyl)-2,2-dimethylpropanamide], the IC50 turned out to be 19.7 µM.
In the case of `CC(C)(C)C(=O)N(Cc1csc(N(c2ccccc2)c2ccccc2)n1)c1ccc(F)cc1` [Compound 179, N-{[2-(diphenylamino)-1,3-thiazol-4-yl]methyl}-N-(4-fluorophenyl)-2,2-dimethylpropanamide] it was 3.9 µM; in that of `CC(C)(C)C(=O)N(Cc1csc(-c2ccccc2)n1)c1ccc(F)cc1` [Compound 180, N-(4-fluorophenyl)-2,2-dimethyl-N-[(2-phenyl-1,3-thiazol-4-yl)methyl]propanamide], 7.9 µM; in that of `CC(C)(C)C(=O)N(Cc1csc(N2CCC3(CC2)OCCO3)n1)c1ccc(F)cc1` [Compound 181, N-{[2-(1,4-dioxa-8-azaspiro[4.5]dec-8-yl)-1,3-thiazol-4-yl]methyl}-N-(4-fluorophenyl)-2,2-dimethylpropanamide], 2.7 µM.
`CC(C)(C)C(=O)N(Cc1csc(N2CCC(O)CC2)n1)c1ccc(F)cc1` [Compound 182, N-(4-fluorophenyl)-N-{[2-(4-hydroxypiperidin-1-yl)-1,3-thiazol-4-yl]methyl}-2,2-dimethylpropanamide]: it took 8.1 µM to reach half-maximal inhibition (IC50).
Molecule `CC(C)(C)C(=O)N(Cc1csc(N2CCCCCC2)n1)c1ccc(F)cc1` [Compound 183, N-[(2-azepan-1-yl-1,3-thiazol-4-yl)methyl]-N-(4-fluorophenyl)-2,2-dimethylpropanamide] showed an IC50 of 2.3 µM.
`CC(C)(C)C(=O)N(Cc1csc(N2CCCCCCC2)n1)c1ccc(F)cc1` [Compound 184, N-[(2-azocan-1-yl-1,3-thiazol-4-yl)methyl]-N-(4-fluorophenyl)-2,2-dimethylpropanamide] came in with a 50% inhibitory concentration (IC50) of 1.6 µM.
As for `CC(C)(C)C(=O)N(Cc1csc(N2CCC(CO)CC2)n1)c1ccc(F)cc1` [Compound 185, N-(4-fluorophenyl)-N-({2-[4-(hydroxymethyl)piperidin-1-yl]-1,3-thiazol-4-yl}methyl)-2,2-dimethylpropanamide], inhibition was half-maximal at 2.5 µM (IC50).

In general, IC50 refers to the midpoint of a concentration-inhibition curve. The low end stands for inhibition by little substance, the high end for a need for much substance.
